In patent US7979946B2, “Polish and polishing mitts” (Kimberly-Clark Worldwide, Inc., priority 2006, dated 2011):
“Also recorded” adds a separate entry of the source.

System: mold
Assay: Inhibition of mold growth in a polish applied to a mitt
Assay type: cell-based
Conditions: chemical added to base polish (Pedag Deluxe Cream Polish), samples compared with each other
From the text: In each of the following Examples, a polish was applied to a mitt. The base polish was provided by Pedag USA, Inc. (Seattle) under the trade name Deluxe Cream Polish. […] The second sheet layer was constructed of a high-loft spunbond web of bicomponent polypropylene/polyethylene fibers with a side-by-side orientation laminated to a film of high density polyethylene on the inside surface. […] The first sheet layer and the second sheet layer were ultrasonically bonded leaving an opening for the insertion of two fingers (such as at seams 16 of FIGS. 1-3). Several different chemicals were tested to determine their ability to inhibit mold growth in a polish that has been applied to a mitt. For example, chloroacetamide, polyaminopropyl biguanide available under the name Cosmocil CQ from ICI Americas Inc., organosilicone quaternary ammonium compound available under the name AEM 5700 from Dow Chemical by Aegis Environmental Management (Midland, Mich.), a combination of combination of isothiazolones and N-/O-formals available under the name Parmetol DF35 from Schulke & Mayr, and methylparaben were each added to a base polish sample. The resulting polish samples were then applied to mitts. The ability of the polish to inhibit mold growth for each sample was then compared.

Q: With `COC(=O)c1ccc(O)cc1` [methylparaben] as the compound, how does the “ability of the polish to inhibit mold growth” value read?
A: inhibited growth of mold better than the other tested chemicals; also recorded: best results of all samples

Q: How did the “ability of the polish to inhibit mold growth” value turn out when `CCC(=O)O` [propanoic acid] was run?
A: inhibited growth of mold better than the other tested chemicals
